Earlier results as cited in US5811400A, “Peptide derivatives with δ opioid receptor antagonist or mixed μ agδ antagonist effects” (Astra AB, priority 1994, dated 1998).

System: μ opioid receptors
Conditions: GPI assay

In the case of `Oc1ccc2c3c1O[C@H]1c4[nH]c5ccccc5c4C[C@@]4(O)[C@@H](C2)N(CC2CC2)CC[C@]314` [naltrindole], the “μ antagonist properties (Ke)” value is listed as 29 nM.
